This note sets out measurements from ChEMBL document CHEMBL4270607, “Identification of crizotinib derivatives as potent SHIP2 inhibitors for the treatment of Alzheimer's disease” (Eur J Med Chem, 2018).

A short description of data set [1]: Metabolic stability in human liver microsomes assessed as parent compound remaining at 1 uM preincubated for 5 mins followed by NADPH addition measured after 30 mins by LC-MS/MS analysis. Format: ADME, microsome. The following applies: read-out: Stability.
In data set [2] the target is T1, Phosphatidylinositol 3,4,5-trisphosphate 5-phosphatase 2 (Mus musculus) (UniProt Q6P549).
T1 sequence (whole entry): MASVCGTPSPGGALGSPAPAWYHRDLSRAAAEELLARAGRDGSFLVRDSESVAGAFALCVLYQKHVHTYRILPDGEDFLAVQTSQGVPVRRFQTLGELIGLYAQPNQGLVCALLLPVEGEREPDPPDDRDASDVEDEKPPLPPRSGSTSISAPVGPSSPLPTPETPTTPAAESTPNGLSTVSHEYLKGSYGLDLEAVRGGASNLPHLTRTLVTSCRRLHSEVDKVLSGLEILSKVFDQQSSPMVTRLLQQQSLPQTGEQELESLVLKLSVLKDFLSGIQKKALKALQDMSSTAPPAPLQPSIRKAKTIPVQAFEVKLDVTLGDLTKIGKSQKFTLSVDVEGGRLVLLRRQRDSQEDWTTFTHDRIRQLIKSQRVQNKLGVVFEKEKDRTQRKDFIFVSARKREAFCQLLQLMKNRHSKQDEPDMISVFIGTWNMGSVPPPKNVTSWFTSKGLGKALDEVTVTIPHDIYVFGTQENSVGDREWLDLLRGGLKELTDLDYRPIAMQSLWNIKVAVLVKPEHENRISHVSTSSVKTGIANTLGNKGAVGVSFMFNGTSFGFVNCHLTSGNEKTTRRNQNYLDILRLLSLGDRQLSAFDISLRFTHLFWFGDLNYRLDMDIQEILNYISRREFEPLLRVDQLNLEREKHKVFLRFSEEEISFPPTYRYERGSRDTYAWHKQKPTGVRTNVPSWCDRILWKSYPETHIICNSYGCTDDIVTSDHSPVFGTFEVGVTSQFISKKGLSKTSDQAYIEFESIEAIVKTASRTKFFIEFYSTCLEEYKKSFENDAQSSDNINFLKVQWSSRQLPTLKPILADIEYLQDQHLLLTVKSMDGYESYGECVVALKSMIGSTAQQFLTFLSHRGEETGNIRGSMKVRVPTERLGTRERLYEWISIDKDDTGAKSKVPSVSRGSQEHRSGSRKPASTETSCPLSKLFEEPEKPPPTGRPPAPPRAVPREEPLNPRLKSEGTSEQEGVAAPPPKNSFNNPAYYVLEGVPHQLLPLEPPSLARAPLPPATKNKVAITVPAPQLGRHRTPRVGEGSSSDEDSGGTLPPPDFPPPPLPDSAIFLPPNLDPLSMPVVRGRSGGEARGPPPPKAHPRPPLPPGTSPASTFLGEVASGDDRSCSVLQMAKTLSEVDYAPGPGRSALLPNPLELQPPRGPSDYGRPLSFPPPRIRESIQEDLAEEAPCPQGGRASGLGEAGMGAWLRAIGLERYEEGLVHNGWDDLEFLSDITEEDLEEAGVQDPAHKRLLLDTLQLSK
The data set can be described thus: Inhibition of SHIP2 in mouse HT22 cells assessed as decrease in PI(3,4)P2 production at 10 uM after 24 hrs by mKate2-TAPP1-PH based fluorescence imaging method. Format: cell-based.

A short description of data set [3]: Metabolic stability in dog liver microsomes assessed as parent compound remaining at 1 uM preincubated for 5 mins followed by NADPH addition measured after 30 mins by LC-MS/MS analysis. Format: ADME, Canis lupus familiaris, microsome. The note with it: read-out: Stability. (Microsomes from liver hold many membrane-bound enzymes, among them those of drug oxidation.)

For data set [4], the target named is CYP3A4 (Homo sapiens, UniProt P08684). Briefly: Inhibition of recombinant human CYP3A4 assessed as remaining enzyme activity at 10 uM preincubated for 5 mins followed by NADPH addition measured after 20 mins by fluorescence assay relative to control. It counts as ADME. The note with it: read-out: Activity.
Sequence of CYP3A4 (P08684 whole entry): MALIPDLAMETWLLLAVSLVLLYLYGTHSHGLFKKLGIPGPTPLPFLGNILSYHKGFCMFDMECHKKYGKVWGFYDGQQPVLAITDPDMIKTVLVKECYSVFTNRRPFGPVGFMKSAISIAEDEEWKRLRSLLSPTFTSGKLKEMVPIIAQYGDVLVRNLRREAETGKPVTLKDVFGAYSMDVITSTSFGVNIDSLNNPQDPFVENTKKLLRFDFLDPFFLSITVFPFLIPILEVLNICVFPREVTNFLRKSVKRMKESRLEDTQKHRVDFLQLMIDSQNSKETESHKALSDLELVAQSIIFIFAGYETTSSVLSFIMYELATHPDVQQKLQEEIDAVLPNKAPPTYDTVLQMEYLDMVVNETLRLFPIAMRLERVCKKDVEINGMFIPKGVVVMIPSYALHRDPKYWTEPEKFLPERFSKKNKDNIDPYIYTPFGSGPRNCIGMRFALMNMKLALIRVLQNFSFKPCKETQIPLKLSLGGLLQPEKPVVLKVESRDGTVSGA
A short description of data set [5]: Metabolic stability in rat liver microsomes assessed as parent compound remaining at 1 uM preincubated for 5 mins followed by NADPH addition measured after 30 mins by LC-MS/MS analysis. Format: ADME, microsome. The note with it: read-out: Stability.
Data set [6] has as its target CYP2D6 (Homo sapiens, UniProt P10635). The data set can be described thus: Inhibition of recombinant human CYP2D6 assessed as remaining enzyme activity at 10 uM preincubated for 5 mins followed by NADPH addition measured after 20 mins by fluorescence assay relative to control. It counts as ADME. The following applies: read-out: Activity.
Data set [7] deals with HT-22. Briefly: Cytotoxicity against mouse HT22 cells assessed as decrease in cell viability at 10 uM after 24 hrs by MTT assay. The following applies: ht-22, 24 h. It counts as cell-based. On the technique in general: Tetrazolium assays rely on reduction of a dye to a coloured formazan, in cell work by metabolically active cells.

Each structure is given as a SMILES string. Activity calls are given as the source filed them. The rule behind the calls is not given here.

Sequence of CYP2D6 (P10635 whole entry): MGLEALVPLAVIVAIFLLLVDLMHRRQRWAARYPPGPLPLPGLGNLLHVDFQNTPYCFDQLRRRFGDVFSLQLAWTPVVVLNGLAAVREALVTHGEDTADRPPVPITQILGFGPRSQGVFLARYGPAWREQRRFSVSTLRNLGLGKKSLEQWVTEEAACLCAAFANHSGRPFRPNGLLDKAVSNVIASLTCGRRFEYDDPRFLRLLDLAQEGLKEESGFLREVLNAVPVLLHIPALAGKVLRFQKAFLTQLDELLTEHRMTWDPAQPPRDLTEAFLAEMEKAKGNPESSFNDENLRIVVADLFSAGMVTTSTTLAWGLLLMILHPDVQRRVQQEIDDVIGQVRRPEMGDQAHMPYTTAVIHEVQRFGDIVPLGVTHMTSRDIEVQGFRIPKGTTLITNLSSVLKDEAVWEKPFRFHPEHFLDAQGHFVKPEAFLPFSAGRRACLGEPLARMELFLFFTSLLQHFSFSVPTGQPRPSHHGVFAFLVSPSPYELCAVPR

As to `C[C@@H](Oc1cncc(-c2cnc(N)nc2)c1)c1c(Cl)ccc(F)c1Cl`, the remaining at 0.5 h, 1 µM in data set [1] is 77%; in data set [3], 23.1%; in data set [5] it was 56.4%. Besides, the inhibition entry in data set [2] was “Active”. Also, the activity at 20 min, 10 µM in data set [4] worked out at 80.2%; in data set [6], 94.4%. Moreover, the Activity entry in data set [7] is given as “Non-Toxic”.
Take `N#Cc1ccc(-c2cncc(OCc3ccc(Cl)cc3Cl)c2)s1`: the figures for the remaining at 0.5 h, 1 µM in data set [1], in data set [3] and in data set [5] were 74.5%, 24.3% and 64.3%, respectively. In data set [2], the inhibition entry was “Active”. For the same compound, the activity at 20 min, 10 µM stood at 96.7% in data set [4] and 93.1% in data set [6]. The Activity entry in data set [7] was “Non-Toxic”.
For `O=C(NCc1c(F)cccc1F)c1sccc1OCc1ccc(Cl)cc1Cl`, the remaining at 0.5 h, 1 µM is 44.1% in data set [1], 5.7% in data set [3] and 28.3% in data set [5]. Further, the inhibition entry in data set [2] is “Active”. In addition, the activity at 20 min, 10 µM in data set [4] is 20.2%; in data set [6], 82.7%. Further, the Activity result in data set [7] is “Toxic”.
